According to patent US4988678A, “Combinations of FU and BVU as anti-adenocarcinoma agents” (priority 1987, dated 1991):

What was measured:
[1] = human body, cited from earlier work
replication of viruses = details: BVU as such; cited from earlier work
Epstein-Barr virus = details: infections caused by Epstein-Barr virus; cited from earlier work
[2] = test system: herpes simplex virus type 1; details: infections caused by herpes simplex virus type 1; cited from earlier work
varicella zoster virus = details: infections caused by varicella zoster virus; cited from earlier work
[3] = Toxicity / deaths of mice in Example 1; format: in vivo, male BDF1 mice
[4] = cited from earlier work
adenocarcinoma 755 = assay: Antitumor activity against subcutaneous adenocarcinoma 755 in BDF1 mice, oral FU or FU + BVDU (Example 1); details: for T/C (percent tumor weight with regard to control) / tumor weight, Mean ± SD: p.o. daily, 5 days, day 12
Method: Groups of 6 male BDF1 -mice having a body weight of 21 to 23 g, were subcutaneously inoculated on day 0 with tumor cells of the type adenocarcinoma 755 at a dose of 5=10^5 cells per mouse. Thereupon, the compound FU (or a combination of FU and BVDU) was perorally administered in a predetermined daily dose during 5 consecutive days, starting 24 hours after the inoculation with tumor cells. On day 12, the tumor weight was determined and compared with the tumor weight in a non-treated control group.

[5] = FU 30 mg/kg, p.o. daily, 5 days

O=c1[nH]c(=O)n(C2CCCO2)cc1F (stereo not shown) [FT, N1-(2'-tetrahydrofuryl)-5-fluorouracil]
conversion to FU [1]: converted slowly to FU

O=c1[nH]cc(/C=C/Br)c(=O)[nH]1 [BVU, 5-(2-bromovinyl)uracil]
presence in the blood stream ([1]; after conversion from BVDU): remains present in the blood stream for a relatively long period
activity against replication of viruses (replication of viruses): inactive

O=c1[nH]c(=O)n([C@H]2C[C@H](O)[C@@H](CO)O2)cc1/C=C/Br [BVDU, (E)-5-(2-bromovinyl)-2'-deoxyuridine]
conversion to BVU [1]: rapidly converted
antiviral activity (Epstein-Barr virus): active
antiviral activity [2]: active
antiviral activity (varicella zoster virus): active

O=c1[nH]cc(F)c(=O)[nH]1 [FU, 5-fluorouracil]
died (animals of group) [3, 5]: 3/6
toxicity (in words) [3, 5]: Toxic
LD50 ([3]; mouse, in vivo, po, FU used alone, from the Table (doses in mg/kg), read-out: LD50 (50% lethal dose)): 30 mg/kg
degradation in the liver [4]: degraded rather rapidly
T/C (percent tumor weight with regard to control) (adenocarcinoma 755; FU 5 mg/kg): 122%
tumor weight, Mean ± SD (adenocarcinoma 755; FU 5 mg/kg): 2523 ± 389 mg
T/C (percent tumor weight with regard to control) (adenocarcinoma 755; FU 10 mg/kg): 85%
tumor weight, Mean ± SD (adenocarcinoma 755; FU 10 mg/kg): 1759 ± 726 mg
T/C (percent tumor weight with regard to control) (adenocarcinoma 755; FU 20 mg/kg): 32%
tumor weight, Mean ± SD (adenocarcinoma 755; FU 20 mg/kg): 675 ± 355 mg
therapeutic index (ratio of LD50 to ED50) (adenocarcinoma 755; FU used alone): 2
ED50 (adenocarcinoma 755; Mus musculus, po, 288 h, read-out: ED50 (dose causing a 50% reduction of T/C)): 15 mg/kg
